{"source": "patent US20250326712A1", "about": "“IONIZABLE LIPIDS” (eTheRNA immunotherapies NV, priority 2022, published 2025)", "key": {"[1]": {"test": "mRNA encapsulation by Ribogreen RNA assay", "type": "physicochemical", "conditions": "LNP: ionizable lipid/DSPC/cholesterol/DMG-PEG2000 about 50/10/38.5/1.5, eGFP mRNA, mRNA/ionizable lipid 1/10", "description": "(§1) Lipid based nanoparticles were produced by microfluidic mixing of an mRNA solution in sodium acetate buffer (100 mM, pH 4) and lipid solution in a 2:1 volume ratio at a speed of 16 mL/min using the NanoAssemblr Benchtop (Precision Nanosystems). LNPs were produced at a standard molar ratio ionizable lipid/DSPC (Avanti Polar Lipids)/cholesterol (Sigma)/DMG-PEG2000 (Avanti Polar Lipids) of about 50/10/38.5/1.5. eGFP mRNA was encapsulated in all LNPs as reporter mRNA, at a mRNA/ionizable lipid molar ratio of 1/10. LNPs were dialyzed against TBS (10000 times more TBS volume than LNP volume) using slide-a-lyzer dialysis cassettes (20K MWCO, 3 mL, ThermoFisher). Size, polydispersity and zeta potential were measured with a Zetasizer Nano (Malvern). mRNA encapsulation was measured by standard Ribogreen RNA assay (Invitrogen)."}, "[2]": {"test": "LNP size and polydispersity measured with a Zetasizer Nano", "type": "physicochemical", "conditions": "LNP: ionizable lipid/DSPC/cholesterol/DMG-PEG2000 about 50/10/38.5/1.5, eGFP mRNA, dialyzed against TBS; for size: in nm (unit assumed)", "description": "as §1"}, "hEPO expression": {"test_system": "hEPO expression", "test": "In vivo hEPO expression after IV mRNA LNP injection (hEPO ELISA)", "set-up": "species or system BALB/c mice", "conditions": "hEPO mRNA LNPs, 10 μg mRNA intravenous in tail vein, different timepoints, FIGS. 3 A & B", "description": "LNPs were produced at a standard molar ratio ionizable lipid/DSPC/cholesterol/DMG-PEG2000 of about 50/10/38.5/1.5. Human erythropoietin (hEPO) mRNA was encapsulated in all LNPs at an mRNA/ionizable lipid molar ratio of 1/10.\nBALB/c mice (female, 6 weeks old mice) were injected intravenously in the tail vein with 200 μl of the respective mRNA LNPs (10 μg mRNA, TBS buffer) or control buffer. Blood was collected from the submandibular vein at different timepoints after which hEPO concentrations were determined using hEPO ELISA assay kit (catalog #BMS2035-2—Thermofisher Scientific), according to the manufacturer's instructions."}}}
{"smiles": "CCCCCCCC/C=C\\CCCCCCCC(=O)OCC(CNC(=O)OCCSSCCOC(=O)NCCN1CCCCCC1)OC(=O)CCCCCCC/C=C\\CCCCCCCC", "note": "(stereo not shown) [ETG-23, reference compound]", "values": [{"measurement": "% encap", "setting": "[1]", "result": 97, "unit": "%"}, {"measurement": "PDI", "setting": "[2]", "result": 0.082}, {"measurement": "size", "setting": "[2]", "result": 75.97}]}
{"smiles": "CCCCCC/C=C\\COC(=O)CCCCCCCN(CCCCCCCC(=O)OC(CCCCCCCC)CCCCCCCC)C(=O)OCCSSCCOC(=O)NCCN(C)C", "note": "[ETG-51]", "values": [{"measurement": "% encap", "setting": "[1]", "result": 96, "unit": "%"}, {"measurement": "PDI", "setting": "[2]", "result": 0.119}, {"measurement": "size", "setting": "[2]", "result": 111.97}]}
{"smiles": "CCCCCC/C=C\\COC(=O)CCCCCCCN(CCCCCCCC(=O)OC(CCCCCCCC)CCCCCCCC)C(=O)OCCSSCCOC(=O)NCCN1CCCCCC1", "note": "[ETG-52]", "values": [{"measurement": "% encap", "setting": "[1]", "result": 97, "unit": "%"}, {"measurement": "PDI", "setting": "[2]", "result": 0.099}, {"measurement": "size", "setting": "[2]", "result": 90.70}]}
{"smiles": "CCCCCCCCCOC(=O)CCCCCCCN(CCCCCCCC(=O)OC(CCCCCCCC)CCCCCCCC)C(=O)OCCSSCCOC(=O)NCCN(C)C", "note": "[ETG-53]", "values": [{"measurement": "hEPO expression (serum concentration, area under curve)", "setting": "hEPO expression", "result": "higher hEPO expression compared to ETG-23 control"}, {"measurement": "% encap", "setting": "[1]", "result": 97, "unit": "%"}, {"measurement": "PDI", "setting": "[2]", "result": 0.085}, {"measurement": "size", "setting": "[2]", "result": 103.23}]}
{"smiles": "CCCCCCCCCOC(=O)CCCCCCCN(CCCCCCCC(=O)OC(CCCCCCCC)CCCCCCCC)C(=O)OCCSSCCOC(=O)NCCN1CCCCCC1", "note": "[ETG-54]", "values": [{"measurement": "% encap", "setting": "[1]", "result": 98, "unit": "%"}, {"measurement": "PDI", "setting": "[2]", "result": 0.150}, {"measurement": "size", "setting": "[2]", "result": 90.30}]}
{"smiles": "CCCCCCCCC(CC)OC(=O)CCCCCCCN(CCCCCCCC(=O)OC(CCCCCCCC)CCCCCCCC)C(=O)OCCSSCCOC(=O)NCCN(C)C", "note": "(stereo not shown) [ETG-55]", "values": [{"measurement": "% encap", "setting": "[1]", "result": 96, "unit": "%"}, {"measurement": "PDI", "setting": "[2]", "result": 0.123}, {"measurement": "size", "setting": "[2]", "result": 93.73}]}
{"smiles": "CCCCCCCCC(CC)OC(=O)CCCCCCCN(CCCCCCCC(=O)OC(CCCCCCCC)CCCCCCCC)C(=O)OCCSSCCOC(=O)NCCN1CCCCCC1", "note": "(stereo not shown) [ETG-56]", "values": [{"measurement": "% encap", "setting": "[1]", "result": 98, "unit": "%"}, {"measurement": "PDI", "setting": "[2]", "result": 0.120}, {"measurement": "size", "setting": "[2]", "result": 86.26}]}
{"smiles": "CCCCCCCCC(CCCCCCCC)OC(=O)CCCCCCCN(CCCCCC(=O)OC(CCCCCCCC)CCCCCCCC)C(=O)OCCSSCCOC(=O)NCCN(C)C", "note": "[ETG-57]", "values": [{"measurement": "% encap", "setting": "[1]", "result": 95, "unit": "%"}, {"measurement": "PDI", "setting": "[2]", "result": 0.114}, {"measurement": "size", "setting": "[2]", "result": 109.10}]}
{"smiles": "CCCCCCCCC(CCCCCCCC)OC(=O)CCCCCCCN(CCCCCC(=O)OC(CCCCCCCC)CCCCCCCC)C(=O)OCCSSCCOC(=O)NCCN1CCCCCC1", "note": "[ETG-58]", "values": [{"measurement": "% encap", "setting": "[1]", "result": 98, "unit": "%"}, {"measurement": "PDI", "setting": "[2]", "result": 0.086}, {"measurement": "size", "setting": "[2]", "result": 101.50}]}
